ChEMBL document CHEMBL5252673, “Development of thiazole-appended novel hydrazones as a new class of α-amylase inhibitors with anticancer assets: an in silico and in vitro approach” (RSC Med Chem, 2023)

Assays:
Alpha amylase [1] = biological target: T1, Alpha amylase (Homo sapiens, UniProt P0DUB6); assay: Inhibition of alpha-amylase (unknown origin) using starch as substrate preincubated with substrate for 15 mins followed by compound addition and measured after 15 mins by UV-VIS spectrophotometric analysis
T1 sequence (P0DUB6 whole entry): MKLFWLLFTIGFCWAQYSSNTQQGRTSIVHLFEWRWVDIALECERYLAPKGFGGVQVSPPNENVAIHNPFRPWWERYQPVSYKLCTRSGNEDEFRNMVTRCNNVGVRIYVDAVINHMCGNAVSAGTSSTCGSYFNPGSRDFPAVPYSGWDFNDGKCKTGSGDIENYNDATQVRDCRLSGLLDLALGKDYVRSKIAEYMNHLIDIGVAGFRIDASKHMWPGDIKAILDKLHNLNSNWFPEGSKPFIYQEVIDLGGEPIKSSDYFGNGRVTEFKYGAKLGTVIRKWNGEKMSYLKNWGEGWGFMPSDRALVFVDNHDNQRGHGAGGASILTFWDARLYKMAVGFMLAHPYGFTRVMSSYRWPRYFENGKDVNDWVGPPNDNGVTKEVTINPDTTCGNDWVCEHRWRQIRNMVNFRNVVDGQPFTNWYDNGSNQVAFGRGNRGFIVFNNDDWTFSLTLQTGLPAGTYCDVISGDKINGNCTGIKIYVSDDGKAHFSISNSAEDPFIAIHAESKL

A549 [2] = assay: Antiproliferative activity against human A549 cells assessed as inhibition of cell growth incubated for 48 hrs by MTT assay; assay type: functional, cell-based; conditions: A549, 48 h
MDA-MB-231 = assay: Antiproliferative activity against human MDA-MB-231 cells assessed as inhibition of cell growth incubated for 48 hrs by MTT assay; assay type: functional, cell-based; conditions: MDA-MB-231, 48 h
HCT-116 = assay: Antiproliferative activity against human HCT-116 cells assessed as inhibition of cell growth incubated for 48 hrs by MTT assay; assay type: functional, cell-based; conditions: HCT-116, 48 h
Alpha amylase [3] = biological target: T1, Alpha amylase; assay: Inhibition of alpha-amylase (unknown origin)
Alpha amylase [4] = biological target: T1, Alpha amylase; assay: Inhibition of alpha-amylase (unknown origin) using starch as substrate incubated for 30 mins by microplate reader analysis
A549 [5] = assay: Induction of ROS in human A549 cells at sub IC50 concentration incubated for 24 hrs by H2DCFDA dye based fluorescence assay (reference value: 33.28%); assay type: functional
MCF-10A = assay: Cytotoxicity against human MCF-10A assessed as reduction in cell viability upto 10 uM incubated for 48 hrs by MTT assay; assay type: toxicity, cell-based
Alpha amylase [6] = biological target: T1, Alpha amylase; assay: Inhibition of alpha-amylase (unknown origin) using p-nitrophenylR-D-maltoside as substrate incubated for 30 mins by […]
[7] = system: O=C(N/N=C/c1ccc(Cl)cc1)c1csc(Nc2ccc([N+](=O)[O-])cc2)n1; assay: (§1) Uncompetitive inhibition of alpha-amylase (unknown origin) using starch as substrate assessed as decrease in Vmax incubated for 30 mins by UV-visible spectrophotometric analysis; conditions: Homo sapiens
[8] = system: COc1cc(/C=N/NC(=O)c2csc(Nc3ccc([N+](=O)[O-])cc3)n2)cc(OC)c1OC; assay: as §1; conditions: Homo sapiens
[9] = system: O=C(N/N=C/c1ccc(O)cc1)c1csc(Nc2ccc([N+](=O)[O-])cc2)n1; assay: as §1; conditions: Homo sapiens
[10] = system: COc1cc(/C=N/NC(=O)c2csc(Nc3ccc([N+](=O)[O-])cc3)n2)ccc1O; assay: as §1; conditions: Homo sapiens
[11] = system: O=C(N/N=C/c1ccc(Cl)cc1)c1csc(Nc2ccc([N+](=O)[O-])cc2)n1; assay: (§2) Uncompetitive inhibition of alpha-amylase (unknown origin) using starch as substrate assessed as decrease in Km incubated for 30 mins by UV-visible spectrophotometric analysis; conditions: Homo sapiens
[12] = system: COc1cc(/C=N/NC(=O)c2csc(Nc3ccc([N+](=O)[O-])cc3)n2)cc(OC)c1OC; assay: as §2; conditions: Homo sapiens
[13] = system: O=C(N/N=C/c1ccc(O)cc1)c1csc(Nc2ccc([N+](=O)[O-])cc2)n1; assay: as §2; conditions: Homo sapiens
[14] = system: COc1cc(/C=N/NC(=O)c2csc(Nc3ccc([N+](=O)[O-])cc3)n2)ccc1O; assay: as §2; conditions: Homo sapiens

Compound	IC50 (Alpha amylase [1]) [µM]	IC50 (A549 [2]) [µM]	IC50 (MDA-MB-231) [µM]	IC50 (HCT-116) [µM]	further results
Cc1c(C(=O)N/N=C/c2ccc(O)c(O)c2)oc2ccccc12					IC50 (Alpha amylase [3]): 1.24 µM
COc1cc(/C=N/NC(=O)c2csc(Nc3ccc(Cl)cc3)n2)ccc1O	0.32	2.16	6.55	2.88	
Cc1cccc(-c2nc3scc(-c4cccc([N+](=O)[O-])c4)n3n2)c1					IC50 (Alpha amylase [4]): 1.1 µM
Cc1ccc([C@H]2C3CSCN3[C@@]3(C(=O)Nc4ccccc43)[C@]23N=C(c2ccccc2)OC3=O)cc1 (some centres undefined)					IC50 (Alpha amylase [3]): 1.76 µM
COc1ccc(/C=N/NC(=O)c2csc(Nc3ccc(OC)cc3)n2)cc1	0.47	7.88	6.89	7.83	
C#Cc1cccc(Nc2ncnc3cc(OCCOC)c(OCCOC)cc23)c1 [ERLOTINIB]		1.23	2.54	1.11	
O=C(N/N=C/c1ccc(Cl)cc1)c1csc(Nc2ccc([N+](=O)[O-])cc2)n1	0.29	2.63	6.77	2.96	Activity (A549 [5]): 28.62%; Activity (MCF-10A): Non-Toxic
COc1cc(-c2nc3ccccc3[nH]2)ccc1OCC(=O)Nc1ccccc1C					IC50 (Alpha amylase [3]): 11 µM
O=[N+]([O-])c1ccc(/C(CSc2nnc3c(n2)[nH]c2ccccc23)=N\Nc2nc(-c3ccc([N+](=O)[O-])cc3)co2)cc1					IC50 (Alpha amylase [6]): 1.2 µM
COc1cc(/C=N/NC(=O)c2csc(Nc3ccc([N+](=O)[O-])cc3)n2)cc(OC)c1OC	0.26	1.62	2.67	1.03	Activity (A549 [5]): 22.34%; Activity (MCF-10A): Non-Toxic
COc1ccc(Nc2nc(C(=O)N/N=C/c3ccc(OC)c(OC)c3)cs2)cc1	0.43	2.97	3.22	2.31	
O=C1CS/C(=N\N=C\c2ccc(OS(=O)(=O)c3ccccc3[N+](=O)[O-])cc2)N1					IC50 (Alpha amylase [3]): 42.8 µM
NNC(=O)c1csc(N/N=C/c2cccc(Br)c2)n1					IC50 (Alpha amylase [3]): 31 µg/mL
CC(=O)c1sc(N/N=C(/C)c2ccc(Cl)cc2)nc1C					IC50 (Alpha amylase [3]): 4.79 µM
COc1ccc(Nc2nc(C(=O)N/N=C/c3ccc(Cl)cc3)cs2)cc1	0.41	10.3	9.32	12.2	
Alpha amylase (Homo sapiens) (from UniProt P0DUB6)					Vmax [7]: 1.56 µmol/min; Vmax [8]: 3.24 µmol/min; Vmax [9]: 0.916 µmol/min; Vmax [10]: 1.81 µmol/min; Km [11]: 804 µM; Km [12]: 1190 µM; Km [13]: 830 µM; Km [14]: 1030 µM
Cc1ccc(-c2csc(N/N=C(/CSc3nnc4c(n3)[nH]c3ccccc34)c3ccc([N+](=O)[O-])cc3)n2)cc1					IC50 (Alpha amylase [6]): 1.2 µM
COc1ccc(Nc2nc(C(=O)N/N=C/c3ccc(O)c(OC)c3)cs2)cc1	0.43	3.98	4.95	4.99	
COc1ccc(/C=N/NC(=O)c2csc(Nc3ccc(Cl)cc3)n2)cc1	0.4	11.3	16.1	13.2	
C/C(=N\NC(=O)c1csc(Nc2ccc(Cl)cc2)n1)c1ccccn1	0.35	20.2	13.2	13.2	
COc1ccc(Nc2nc(C(=O)N/N=C/c3ccc(O)cc3)cs2)cc1	0.5	7.99	9.87	6.96	
COc1ccc(/C=N/NC(=O)c2csc(Nc3ccc(O)cc3)n2)cc1OC	0.39	4.98	5.56	5.99	
COc1cc(/C=N/NC(=O)c2csc(Nc3ccc([N+](=O)[O-])cc3)n2)ccc1O	0.24	1.99	4.98	2.43	Activity (A549 [5]): 27.19%; Activity (MCF-10A): Non-Toxic
Fc1cccc(-c2nc3scc(-c4ccc(Br)cc4)n3n2)c1					IC50 (Alpha amylase [4]): 3.2 µM
COc1ccc(/C=N/NC(=O)c2csc(Nc3ccc([N+](=O)[O-])cc3)n2)cc1	0.32	8.97	14	4.65	
COc1cc2c(c(OC)c1OC)-c1ccc(OC)c(=O)cc1[C@@H](NC(C)=O)CC2 [COLCHICINE]		1.09	1.98	1.85	

The next lines start with results.

IC50 (Alpha amylase [1]) [µM]	IC50 (A549 [2]) [µM]	IC50 (MDA-MB-231) [µM]	IC50 (HCT-116) [µM]	Compound	further results
0.45	11.3	8.33	4.44	O=C(N/N=C/c1ccc(O)cc1)c1csc(Nc2ccccc2)n1	
0.38	6.49	3.89	7.62	O=C(N/N=C/c1ccccc1)c1csc(Nc2ccc(Cl)cc2)n1	
0.45	9.86	14.9	12.2	O=C(N/N=C/c1ccc(O)c(O)c1)c1csc(Nc2ccccc2)n1	
0.39	5.09	5.6	5.43	O=C(N/N=C/c1ccc(O)c(O)c1)c1csc(Nc2ccc(Cl)cc2)n1	
0.48	5.98	> 25	6.43	O=C(N/N=C/c1ccccc1)c1csc(Nc2ccccc2)n1	
0.34	5.43	8.33	7.66	O=C(N/N=C/c1ccc(F)cc1)c1csc(Nc2ccc([N+](=O)[O-])cc2)n1	
0.41	12	14.5	10.1	COc1cc(/C=N/NC(=O)c2csc(Nc3ccccc3)n2)ccc1O	
0.39	14	> 25	17.2	O=C(N/N=C/c1ccc(Cl)cc1)c1csc(Nc2ccc(Cl)cc2)n1	
0.46	10	> 25	14.9	COc1ccc(Nc2nc(C(=O)N/N=C/c3cccc(N)c3)cs2)cc1	
0.43	8.42	7.77	9.48	O=C(N/N=C/c1cccc(F)c1)c1csc(Nc2ccccc2)n1	
0.41	7.43	15.7	5.67	O=C(N/N=C/c1ccc(O)cc1)c1csc(Nc2ccc(Cl)cc2)n1	
0.49	6.32	> 25	4.32	COc1ccc(Nc2nc(C(=O)N/N=C/c3ccccc3)cs2)cc1	
0.37	11.2	23.2	7.32	O=C(N/N=C/c1ccccc1)c1csc(Nc2ccc([N+](=O)[O-])cc2)n1	
